Legend:
[1] = Detection of encapsulation efficiency, drug loading concentration and total RNA concentration (RiboGreen); format: physicochemical; conditions: for Drug loading concentration / Encapsulation efficiency / Total RNA concentration: LNP formulation prepared from the cationic lipid; for encapsulation efficiency higher than ALC-0315: difference vs ALC-0315; for encapsulation efficiency higher than HIMA: difference vs HIMA (HHMA); for encapsulation efficiency higher than SM-102: difference vs SM-102; for encapsulation efficiency higher than YK-009: difference vs YK-009; for encapsulation efficiency higher than compound 21: difference vs compound 21; for encapsulation efficiency higher than compound 23: difference vs compound 23; for drug loading concentration, times that of ALC-0315 / total RNA concentration, times that of ALC-0315: ratio vs ALC-0315; for drug loading concentration, times that of HIMA / total RNA concentration, times that of HIMA: ratio vs HIMA (HHMA); for drug loading concentration, times that of SM-102 / total RNA concentration, times that of SM-102: ratio vs SM-102; for drug loading concentration, times that of YK-009 / total RNA concentration, times that of YK-009: ratio vs YK-009; for drug loading concentration, times that of compound 21 / total RNA concentration, times that of compound 21: ratio vs compound 21; for drug loading concentration, times that of compound 23 / total RNA concentration, times that of compound 23: ratio vs compound 23
Source text: Encapsulation efficiency is a key quality attribute of liposomes, which refers to the percentage of drug content encapsulated in the lipid bimolecular layer accounting for the total drug dose and can reflect the degree of drug encapsulation in liposomes. The Chinese Pharmacopoeia stipulates that the encapsulation efficiency should generally not be less than 80%.
The drug loading amount is the ratio of the amount of drug in the liposome to the total amount of drug and carrier in the liposome. The drug loading amount directly affects the clinical application dose of the drug. […] The drug loading concentration is proportional to the drug loading amount, and the relative proportion of the drug loading concentrations can represent the relative proportion of the drug loading amounts. The relative ratio of the total RNA concentrations may represent the relative ratio of the amounts of mRNA carried by the LNP formulations.
1×TE buffer, 0.1% Triton X-100 buffer, RiboGreen reagent (1: 200) and mRNA standard stock solution were prepared.
An appropriate amount of the sample was added to an appropriate amount of 1×TE buffer, and the mixture was diluted to obtain a solution containing approximately […] sample per 1 mL. Then the sample was added to a 96-well plate, and 50 μL of the diluted test sample or the mRNA standard stock solution was added to each well, then 1×TE buffer and 0.1% Triton X-100 buffer were added. The sample was incubated at 37° C. for 10 minutes, and 100 μL RiboGreen reagent (1:200) was added to each well of the test sample in the 96-well plate. The sample was centrifugated, and the data were read using a microplate reader, and processed.

[2] = Particle size and polydispersity index (PDI) of lipid nanoparticles by dynamic light scattering; format: physicochemical; conditions: for PDI: LNP formulation of the cationic lipid, 25° C.; for Particle size: LNP formulation of the cationic lipid/DSPC/cholesterol/DMG-PEG2000 49:10:39.5:1.5, 25° C.
Description: The particle size and polydispersity index (PDI) were determined by dynamic light scattering using Malvern laser particle size analyzer.
10 μL of the liposome solution was weighed, diluted to 1 mL with RNase-free deionized water, and added to the sample pool. Each sample was measured in triplicate. The measurement conditions were: […] scattering angle, and 25° C.

[3] = tested on: 293T cells; experiment: Cell survival rate assay (CCK-8); format: cell-based; conditions: for Cell survival rate: LNP with 1.5 μg Fluc-mRNA, 24 hours, CCK-8; for cell survival rate higher than ALC-0315: difference vs ALC-0315; for cell survival rate higher than HIMA: difference vs HIMA (HHMA); for cell survival rate higher than Lipofectamine 3000: difference vs Lipofectamine 3000; for cell survival rate higher than SM-102: difference vs SM-102; for cell survival rate higher than YK-404: difference vs YK-404; for cell survival rate higher than YK-405: difference vs YK-405; for cell survival rate higher than YK-406: difference vs YK-406; for cell survival rate higher than YK-408: difference vs YK-408; for cell survival rate higher than YK-409: difference vs YK-409; for cell survival rate higher than YK-410: difference vs YK-410; for cell survival rate higher than YK-411: difference vs YK-411; for cell survival rate higher than YK-412: difference vs YK-412; for cell survival rate higher than YK-413: difference vs YK-413; for cell survival rate higher than YK-414: difference vs YK-414; for cell survival rate higher than YK-415: difference vs YK-415; for cell survival rate higher than YK-416: difference vs YK-416; for cell survival rate higher than YK-417: difference vs YK-417; for cell survival rate higher than YK-418: difference vs YK-418; for cell survival rate higher than YK-419: difference vs YK-419; for cell survival rate higher than YK-420: difference vs YK-420; for cell survival rate higher than YK-421: difference vs YK-421; for cell survival rate higher than YK-424: difference vs YK-424; for cell survival rate higher than compound 21: difference vs compound 21; for cell survival rate higher than compound 23: difference vs compound 23; for cytotoxicity reduced compared with YK-411: rounded summary statement vs YK-411
Description: Cell recovery and passage: 293T cells were recovered, cultured in a culture dish, and passaged to the required number of cells.
Seeding plate: The cells in the culture dish were digested and counted. Cells were spread in a 96-well plate at 10,000 cells per well and in a 12-well plate at 150,000 cells per well. Cells were cultured overnight until the cells adhered to the wall.
An LNP formulation containing 1.5 μg of Fluc-mRNA (prepared according to example 4, the carrier components of the LNP formulation were cationic lipid, neutral lipid, structured lipid and polymer-conjugated lipid at a molar ratio of 49:10:39.5:1.5, wherein the cationic lipid was listed in Table 1) and the formulation of Lipofectamine 3000 were added to the cell culture medium of a 96-well plate, and further cultivated for 24 hours. 10 μL of CCK-8 solution was then added to each well, and the culture plate was incubated in an incubator for 1 hour. The absorbance at 450 nm was measured by a microplate reader.

Compound: CCCCCCCCC(CCCCCCCC)COC(=O)CCCCCN(CCCO)CCN(CCCO)CCCCCC(=O)OCC(CCCCCCCC)CCCCCCCC [YK-422, di(2-octyldecyl) 6,6′-(ethane-1,2-diyl-bis((3-hydroxypropyl)azanediyl))dihexanoate]
- Drug loading concentration [1]: 45.05 µg/mL
- Encapsulation efficiency [1]: 92.4%
- Total RNA concentration [1]: 45.76 µg/mL
- encapsulation efficiency higher than ALC-0315 [1]: 29.1%
- encapsulation efficiency higher than HIMA [1]: 32.2%
- encapsulation efficiency higher than SM-102 [1]: 29.5%
- encapsulation efficiency higher than YK-009 [1]: 29.0%
- encapsulation efficiency higher than compound 21 [1]: 34.4%
- encapsulation efficiency higher than compound 23 [1]: 36.2%
- drug loading concentration, times that of ALC-0315 [1]: 1.68
- total RNA concentration, times that of ALC-0315 [1]: 1.21
- drug loading concentration, times that of HIMA [1]: 1.38
- total RNA concentration, times that of HIMA [1]: 1.26
- drug loading concentration, times that of SM-102 [1]: 1.70
- total RNA concentration, times that of SM-102 [1]: 1.27
- drug loading concentration, times that of YK-009 [1]: 1.64
- total RNA concentration, times that of YK-009 [1]: 1.19
- drug loading concentration, times that of compound 21 [1]: 2.05
- total RNA concentration, times that of compound 21 [1]: 1.58
- drug loading concentration, times that of compound 23 [1]: 2.25
- total RNA concentration, times that of compound 23 [1]: 1.47
- PDI [2]: 13.9%
- Particle size [2]: 146 nm
- Cell survival rate [3]: 70.48%
- cell survival rate higher than ALC-0315 [3]: 23.27%
- cell survival rate higher than HIMA [3]: 6.21%
- cell survival rate higher than Lipofectamine 3000 [3]: 48.82%
- cell survival rate higher than SM-102 [3]: 2.58%
- cell survival rate higher than YK-404 [3]: 28.36%
- cell survival rate higher than YK-405 [3]: 28.62%
- cell survival rate higher than YK-406 [3]: 45.52%
- cell survival rate higher than YK-408 [3]: 28.17%
- cell survival rate higher than YK-409 [3]: 24.37%
- cell survival rate higher than YK-410 [3]: 25.56%
- cell survival rate higher than YK-411 [3]: 54.15%
- cell survival rate higher than YK-412 [3]: 16.34%
- cell survival rate higher than YK-413 [3]: 23.28%
- cell survival rate higher than YK-414 [3]: 41.73%
- cell survival rate higher than YK-415 [3]: 9.32%
- cell survival rate higher than YK-416 [3]: 29.51%
- cell survival rate higher than YK-417 [3]: 49.14%
- cell survival rate higher than YK-418 [3]: 49.43%
- cell survival rate higher than YK-419 [3]: 31.56%
- cell survival rate higher than YK-420 [3]: 34.89%
- cell survival rate higher than YK-421 [3]: 34.77%
- cell survival rate higher than YK-424 [3]: 42.55%
- cell survival rate higher than compound 21 [3]: 2.64%
- cell survival rate higher than compound 23 [3]: 1.37%
- cytotoxicity reduced compared with YK-411 [3]: 50%

Compound: CCCCCCCCC(CCCCCCCC)OC(=O)CCCCCCCN(CCO)CCN(CCO)CCCCCCCC(=O)OC(CCCCCCCC)CCCCCCCC [YK-403, di(heptadecan-9-yl) 8, 8′-(ethane-1,2-diyl-bis((2-hydroxyethyl)azanediyl))dioctanoate]
- Drug loading concentration [1]: 34.21 µg/mL
- Encapsulation efficiency [1]: 87.9%
- Total RNA concentration [1]: 40.53 µg/mL
- encapsulation efficiency higher than ALC-0315 [1]: 24.6%
- encapsulation efficiency higher than HIMA [1]: 27.7%
- encapsulation efficiency higher than SM-102 [1]: 25.0%
- encapsulation efficiency higher than YK-009 [1]: 24.4%
- encapsulation efficiency higher than compound 21 [1]: 29.9%
- encapsulation efficiency higher than compound 23 [1]: 31.7%
- drug loading concentration, times that of ALC-0315 [1]: 1.27
- total RNA concentration, times that of ALC-0315 [1]: 1.07
- drug loading concentration, times that of HIMA [1]: 1.05
- total RNA concentration, times that of HIMA [1]: 1.11
- drug loading concentration, times that of SM-102 [1]: 1.29
- total RNA concentration, times that of SM-102 [1]: 1.12
- drug loading concentration, times that of YK-009 [1]: 1.24
- total RNA concentration, times that of YK-009 [1]: 1.05
- drug loading concentration, times that of compound 21 [1]: 1.56
- total RNA concentration, times that of compound 21 [1]: 1.40
- drug loading concentration, times that of compound 23 [1]: 1.71
- total RNA concentration, times that of compound 23 [1]: 1.31
- PDI [2]: 16.5%
- Particle size [2]: 163 nm
- Cell survival rate [3]: 70.76%
- cell survival rate higher than ALC-0315 [3]: 23.55%
- cell survival rate higher than HIMA [3]: 6.49%
- cell survival rate higher than Lipofectamine 3000 [3]: 49.10%
- cell survival rate higher than SM-102 [3]: 2.86%
- cell survival rate higher than YK-404 [3]: 28.64%
- cell survival rate higher than YK-405 [3]: 28.90%
- cell survival rate higher than YK-406 [3]: 45.80%
- cell survival rate higher than YK-408 [3]: 28.45%
- cell survival rate higher than YK-409 [3]: 24.65%
- cell survival rate higher than YK-410 [3]: 25.84%
- cell survival rate higher than YK-411 [3]: 54.43%
- cell survival rate higher than YK-412 [3]: 16.62%
- cell survival rate higher than YK-413 [3]: 23.56%
- cell survival rate higher than YK-414 [3]: 42.01%
- cell survival rate higher than YK-415 [3]: 9.60%
- cell survival rate higher than YK-416 [3]: 29.79%
- cell survival rate higher than YK-417 [3]: 49.42%
- cell survival rate higher than YK-418 [3]: 49.71%
- cell survival rate higher than YK-419 [3]: 31.84%
- cell survival rate higher than YK-420 [3]: 35.17%
- cell survival rate higher than YK-421 [3]: 35.05%
- cell survival rate higher than YK-424 [3]: 42.83%
- cell survival rate higher than compound 21 [3]: 2.92%
- cell survival rate higher than compound 23 [3]: 1.65%
- cytotoxicity reduced compared with YK-411 [3]: 50%

— US12545637B2, “Extrahepatic targeted cationic lipid compound with high efficiency and low toxicity and its composition” (BEIJING YOUCARE KECHUANG PHARMACEUTICAL TECHNOLOGY CO., LTD., priority 2023, dated 2026)
